SMILES strings stand for the structures.

The first data set can be described thus: in vitro. As to conditions: human, hela cells, % viability.
Broadly, the viability is a read-out of living cells in per cent, often relative to untreated cells. Take `O=S(=O)(NC1c2cccc3cccc(c23)C1N1CCNCC1)c1ccc(Cl)cc1` (stereo not drawn) [CBK264082]: the viability at 28.5 h, 10 µM turned out to be 92.2%.

`Cc1ccc(C(=O)COC(=O)c2cc(O)nc3ccccc23)cc1[N+](=O)[O-]` [CBK264085]: the viability at 28.5 h, 10 µM came out at 98.8%.

As for `Cc1noc(NS(=O)(=O)c2ccc(NC(=O)COc3cccc(Br)c3)cc2)c1C` [CBK264086], the viability at 28.5 h, 10 µM is 104%.

Take `O=S(=O)(NCC(Nc1cccc2ccccc12)c1ccccc1)c1ccc(Cl)cc1` (stereo not drawn) [CBK264087]: the viability at 28.5 h, 10 µM was determined as 90.3%.

As for `O=C(/C=C/c1cccc2ccccc12)N1CCCCCC1` [CBK264092], the viability at 28.5 h, 10 µM was 111%.

For the molecule `Cc1ccc(SCCNC(=O)C(C)Sc2ccc(Cl)cc2)cc1` (stereo not drawn) [CBK264104], the viability at 28.5 h, 10 µM is 93.5%.

`O=C(NC(=S)Nc1ccc2oc(-c3ccncc3)nc2c1)c1ccccc1[N+](=O)[O-]` [CBK264106]: the viability at 28.5 h, 10 µM amounted to 87.3%.

Turning to `Cc1cc(C)cc(N(CC(=O)Nc2ccc(C)c(Cl)c2)S(=O)(=O)c2ccccc2)c1` [CBK264109], the viability at 28.5 h, 10 µM stood at 98.9%.

For the molecule `NC(=S)NC(=O)CN1C(=O)c2ccccc2C1=O` [CBK264111], the viability at 28.5 h, 10 µM was found to be 90.9%.

As to `CC(Oc1ccc(Cl)cc1Cl)C(=O)Nc1ccc(O)cc1` (stereo not drawn) [CBK264120], the viability at 28.5 h, 10 µM amounted to 94.8%.

For the molecule `COc1ccc(C)cc1NC(=O)CN(c1ccc(F)cc1)S(=O)(=O)c1ccc(C)cc1` [CBK264122], the viability at 28.5 h, 10 µM amounted to 101%.

On to `Cc1ccc(S(=O)(=O)N(CC(=O)NCc2ccco2)c2cccc(C)c2)cc1` [CBK264125], for which the viability at 28.5 h, 10 µM was determined as 93.9%.

On to `Cc1ccc(S(=O)(=O)NCCSc2ccc(Cl)cc2)cc1[N+](=O)[O-]` [CBK264126], for which the viability at 28.5 h, 10 µM turned out to be 96.8%.

Regarding `CCOc1ccc(C(=O)NC(=S)Nc2ncccc2C)cc1[N+](=O)[O-]` [CBK264128], the viability at 28.5 h, 10 µM was 98.3%.

As for `CN(c1ccc(C(=O)Nc2ccc(S(=O)(=O)N3CCOCC3)cc2)cc1)S(=O)(=O)c1ccccc1` [CBK264129], the viability at 28.5 h, 10 µM is 96.7%.

For `COc1cc(S(=O)(=O)Oc2ccc(OCc3ccccc3)cc2)ccc1Cl` [CBK264132], the viability at 28.5 h, 10 µM worked out at 92.2%.

Regarding `O=C(CCSc1ccc(Cl)cc1)Nc1ccc(S(=O)(=O)N2CCOCC2)cc1` [CBK264133], the viability at 28.5 h, 10 µM was found to be 95.5%.

`O=C(COc1ccc2ccccc2c1Br)Nc1ccc(S(=O)(=O)N2CCCC2)cc1` [CBK264135]: the viability at 28.5 h, 10 µM is 99.3%.

`COc1ccc(Cl)cc1N(CC(=O)Nc1ccccc1C(=O)O)S(C)(=O)=O` [CBK264137]: the viability at 28.5 h, 10 µM was determined as 96.9%.

Take `Cc1c(NC(=O)C2CN(S(=O)(=O)c3ccccc3)CCN2S(=O)(=O)c2ccccc2)c(=O)n(-c2ccccc2)n1C` (stereo not drawn) [CBK264138]: the viability at 28.5 h, 10 µM stood at 98%.

In the case of `Cc1ccc(S(=O)(=O)N(CC(=O)NCC2CCCO2)c2ccccc2)cc1` (stereo not drawn) [CBK264140], the viability at 28.5 h, 10 µM is 90.9%.

Take `COc1ccc(S(=O)(=O)N(CC(=O)Nc2ccc(F)cc2)c2ccccc2)cc1` [CBK264141]: the viability at 28.5 h, 10 µM was 96.5%.

Regarding `O=C(CSc1nsc(SCC(=O)c2ccccc2)n1)c1ccccc1` [CBK264142], the viability at 28.5 h, 10 µM was 120%.

`Cc1ccc(C(=O)NCCNS(=O)(=O)c2ccccc2)cc1` [CBK264145]: the viability at 28.5 h, 10 µM came to 88.8%.

Consider `CC(C)(C)C1CCc2c(sc(NC(=O)CCC(=O)O)c2C(=O)Nc2ccccc2Cl)C1` (stereo not drawn) [CBK264146], for which the viability at 28.5 h, 10 µM was determined as 87.2%.

`C/C=C/c1ccc(OCCCSc2ccc(Cl)cc2)c(OC)c1` [CBK264147]: the viability at 28.5 h, 10 µM was found to be 97.5%.

Turning to `O=S(=O)(c1ccc2ccccc2c1)N1CCN(C2CCC(c3ccccc3)CC2)CC1` (stereo not drawn) [CBK264152], the viability at 28.5 h, 10 µM was 103%.

On to `O=C(COc1ccc(-c2ccccc2)cc1)N1CCN(S(=O)(=O)c2ccccc2[N+](=O)[O-])CC1` [CBK264154], for which the viability at 28.5 h, 10 µM amounted to 93%.

For `O=C(O)CCC(C(=O)O)N1C(=O)c2cc(Cl)c(Cl)cc2C1=O` (stereo not drawn) [CBK264156], the viability at 28.5 h, 10 µM stood at 113%.

For the molecule `COc1ccc(N2CCN(c3nc(N4CCOCC4)nc(N4CCOCC4)n3)CC2)cc1` [CBK264166], the viability at 28.5 h, 10 µM was 100%.

`CC(C)(C)c1ccc(C(=O)NC(=S)Nc2ccc(O)c(-c3nc4cc(Cl)ccc4o3)c2)cc1` [CBK264169]: the viability at 28.5 h, 10 µM came to 88%.

Turning to `CC(=O)Nc1ccc(S(=O)(=O)N2CCN(Cc3ccccc3[N+](=O)[O-])CC2)cc1` [CBK264170], the viability at 28.5 h, 10 µM was 89.3%.

With `O=C(Nc1ccc(Cl)cc1)C(Cc1ccccc1)N1C(=O)c2cc(Cl)c(Cl)cc2C1=O` (stereo not drawn) [CBK264172], the viability at 28.5 h, 10 µM was found to be 99.2%.

Consider `Cc1cccc(NC(S)=NCc2ccccn2)c1` [CBK264174], for which the viability at 28.5 h, 10 µM turned out to be 104%.

Regarding `Cc1ccc(C(=O)COC(=O)C(Cc2ccccc2)N2C(=O)c3cc(Cl)c(Cl)cc3C2=O)cc1` (stereo not drawn) [CBK264176], the viability at 28.5 h, 10 µM amounted to 109%.

In the case of `CCCCn1c(NCc2nc3ccccc3n2C)nc2ccccc21` [CBK264177], the viability at 28.5 h, 10 µM is 87.2%.

Take `COc1ccc(C2NCCc3c2[nH]c2ccccc32)cc1CN1CCN(c2ccc(F)cc2)CC1` (stereo not drawn) [CBK264178C]: the viability at 28.5 h, 10 µM came to 81.7%.

As for `COc1cc(NC(=O)COc2ccc3ccccc3c2)c(C(=O)O)cc1OC` [CBK264181], the viability at 28.5 h, 10 µM came out at 103%.

`COc1cc(C(=O)N2CCN(S(=O)(=O)c3ccccc3[N+](=O)[O-])CC2)cc(OC)c1OC` [CBK264182]: the viability at 28.5 h, 10 µM was determined as 105%.

`N=C(N)NS(=O)(=O)c1ccc(N/C=C\C(=O)c2ccncc2)cc1` [CBK264185]: the viability at 28.5 h, 10 µM was determined as 91.8%.

Regarding `O=S(=O)(c1ccc2ccccc2c1)N1CCN(C2CCCCCCC2)CC1` [CBK264186G], the viability at 28.5 h, 10 µM is 98.3%.

Take `COc1ccc(OC)c(-c2nc(Nc3ccccc3Cl)sc2CC(=O)O)c1` [CBK264190]: the viability at 28.5 h, 10 µM was found to be 96.4%.

Regarding `Cc1ccc(C)c(NC(=O)CN(Cc2ccc(Cl)c(Cl)c2)S(=O)(=O)c2ccccc2)c1` [CBK264191], the viability at 28.5 h, 10 µM amounted to 107%.

For `CCOC(=O)C1CCCN(CCC(=O)Nc2ccccc2)C1` (stereo not drawn) [CBK264192C], the viability at 28.5 h, 10 µM is 91.7%.

For the molecule `COc1cc(NC(=O)CCN2CCN(C)CC2)cc(OC)c1` [CBK264193], the viability at 28.5 h, 10 µM was determined as 92.5%.

As for `COc1ccccc1CC(=O)Nc1ccc(OCC(=O)O)cc1` [CBK264194], the viability at 28.5 h, 10 µM was determined as 99.1%.

In the case of `Cc1ccccc1OCCNS(=O)(=O)c1cccc([N+](=O)[O-])c1` [CBK264195], the viability at 28.5 h, 10 µM came out at 106%.

Regarding `O=C(c1ccncc1)N1CCN(S(=O)(=O)c2ccccc2[N+](=O)[O-])CC1` [CBK264196], the viability at 28.5 h, 10 µM came out at 92.6%.

With `CN1CCN(CCC(=O)Nc2ccc3c(c2)CCC3)CC1` [CBK264197], the viability at 28.5 h, 10 µM amounted to 95.3%.

Regarding `Cc1ccc(S(=O)(=O)N(C)CC(=O)N(C)Cc2ccccc2)cc1` [CBK264201], the viability at 28.5 h, 10 µM is 95.5%.

On to `O=C(CCN1CCc2ccccc2C1)Nc1ccccc1F` [CBK264202], for which the viability at 28.5 h, 10 µM was 94.9%.

As to `COc1ccc(CN2CCN(S(=O)(=O)c3ccc(Cl)cc3)CC2)cc1OC` [CBK264204G], the viability at 28.5 h, 10 µM is 104%.

As for `COc1cccc(NC(=O)CCN2CCN(CCO)CC2)c1` [CBK264207C], the viability at 28.5 h, 10 µM was found to be 88.3%.

In the case of `O=C(c1cccnc1)N1CCN(S(=O)(=O)c2ccc(F)cc2)CC1` [CBK264210], the viability at 28.5 h, 10 µM was found to be 92.8%.

For the molecule `COc1ccc(OCC(=O)N2CCN(S(=O)(=O)c3ccccc3[N+](=O)[O-])CC2)cc1` [CBK264213], the viability at 28.5 h, 10 µM is 93.5%.

With `Cc1ccc(S(=O)(=O)Nc2ccccc2CNc2ccc(Br)cc2)cc1` [CBK264214], the viability at 28.5 h, 10 µM came to 94.5%.

Turning to `O=C(O)CCC(=O)Nc1ccc(OC(F)F)cc1` [CBK264222], the viability at 28.5 h, 10 µM was determined as 99.8%.

On to `Cc1c(C(=O)NC(=S)Nc2ccc(O)c(-c3nc4ccccc4s3)c2)oc2ccccc12` [CBK264223], for which the viability at 28.5 h, 10 µM is 93.2%.

As to `COc1ccc(CN2CCN(Cc3ccco3)CC2)cc1OCc1ccccc1` [CBK264225], the viability at 28.5 h, 10 µM worked out at 105%.

As for `O=C(O)c1ccc(S(=O)(=O)c2ccc3c(c2)C(=O)N(NC(=O)c2ccc(O)cc2)C3=O)cc1` [CBK264229], the viability at 28.5 h, 10 µM came out at 102%.

Take `CC(=O)Nc1ccc(S(=O)(=O)N2CCN(Cc3ccc([N+](=O)[O-])cc3)CC2)cc1` [CBK264231G]: the viability at 28.5 h, 10 µM amounted to 94.3%.

Take `Cc1cc2nc(SCc3nc4ccccc4[nH]3)[nH]c2cc1C` [CBK264233]: the viability at 28.5 h, 10 µM was 97.4%.

With `O=[N+]([O-])c1ccccc1S(=O)(=O)N1CCN(S(=O)(=O)c2ccc(F)cc2)CC1` [CBK264236], the viability at 28.5 h, 10 µM worked out at 92.7%.

For the molecule `c1ccc(CCCN2CCN(Cc3cccc4ccccc34)CC2)cc1` [CBK264237], the viability at 28.5 h, 10 µM was found to be 103%.

Take `COc1ccc(CC(=O)Nc2ccc(OCC(=O)O)cc2)cc1` [CBK264244]: the viability at 28.5 h, 10 µM came to 103%.

As for `COc1ccc(N2CCN(c3nc(OC)nc(OC)n3)CC2)cc1` [CBK264245], the viability at 28.5 h, 10 µM stood at 100%.

For `COc1cc(/C=N/n2cnnc2)ccc1OCc1cccc(C(=O)O)c1` [CBK264249], the viability at 28.5 h, 10 µM was 108%.

For `O=C(O)COc1ccc(NC(=O)C(c2ccccc2)c2ccccc2)cc1` [CBK264250], the viability at 28.5 h, 10 µM came out at 99.6%.

As to `CCOC(=O)C1CCN(CCC(=O)Nc2ccc(F)c(F)c2)CC1` [CBK264252], the viability at 28.5 h, 10 µM stood at 112%.

On to `CC(C)CC(C(=O)Nc1ccc(Br)cc1)N1C(=O)c2ccccc2C1=O` (stereo not drawn) [CBK264253], for which the viability at 28.5 h, 10 µM turned out to be 94.1%.

With `COc1ccccc1N1CCN(CCC(=O)Nc2cccc(F)c2)CC1` [CBK264254C], the viability at 28.5 h, 10 µM came to 92.8%.

`CCc1ccc(-n2nc3ccc(NC(=S)NC(=O)c4cc5ccccc5o4)cc3n2)cc1` [CBK264258]: the viability at 28.5 h, 10 µM worked out at 101%.

As for `O=C(O)COc1ccc(N2C(=O)c3ccc(Oc4cccc([N+](=O)[O-])c4)cc3C2=O)cc1` [CBK264259], the viability at 28.5 h, 10 µM was found to be 107%.

The data set is the same for the next values; noted with them: human, hela cells, % viability, bulk resorufin, single well.
Take `Cc1cccc(N2C(=O)/C(=C/c3ccccc3OCc3ccc(C(=O)O)cc3)C(=O)NC2=S)c1` [CBK264100]: the viability at 28.5 h, 10 µM was 95.3%.

On to `CCc1ccccc1N1C(=O)NC(=O)/C(=C\c2ccc(OCC(=O)O)c(Cl)c2)C1=O` [CBK264107], for which the viability at 28.5 h, 10 µM worked out at 95.2%.

The record behind these values is PMC12040169 (PLOS Biology, 2025).
